According to PMC10466336, “Chemical Probe for Imaging of Polo-like Kinase 4 and Centrioles” (JACS Au, 2023):

How the values were obtained:
Plk4 kinase domain = target: T1, Plk4 kinase domain (Homo sapiens, UniProt O00444); assay: Competition binding assay based on fluorescence polarization (tracer Alexa488-PEG-N-centrinone); conditions: for Kd: Alexa488-PEG-N-centrinone 1 nM, Plk4-KD 5 nM; for binding affinity lower (KD higher) than that of unmodified centrinone: ratio of Kd to Kd of centrinone
T1 construct: Plasmids encoding fragments of Plk4 kinase domain (2-275) with 6xHis-tag were cloned in pET system vectors; made in house; host or cells: E. coli BL21 gold (DE3)
T1 sequence (O00444 2-275): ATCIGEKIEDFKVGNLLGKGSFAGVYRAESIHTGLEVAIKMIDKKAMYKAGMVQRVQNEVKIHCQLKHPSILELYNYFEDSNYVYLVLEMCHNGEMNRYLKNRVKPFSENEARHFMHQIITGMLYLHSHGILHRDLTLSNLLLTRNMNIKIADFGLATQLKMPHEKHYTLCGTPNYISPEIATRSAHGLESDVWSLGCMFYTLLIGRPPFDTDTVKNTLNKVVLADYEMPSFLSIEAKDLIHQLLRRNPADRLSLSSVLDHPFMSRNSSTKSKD
Text: Moreover, we substituted the basic acetyl-piperazine nitrogen in compounds (1 and 2a) with an acetyl-piperidine, to avoid probe protonation and accumulation in endolysosomal compartments (Figure S1A, B).[23] […] These probes were characterized first in vitro by measuring their fluorogenicity in the presence of the 6xHis-tagged Plk4 kinase domain (KD) (Table 1). […] Next, we measured the binding affinities of the probes to the Plk4 kinase domain via a competition binding assay based on fluorescence polarization. […]
1.3.6 Fluorescence Polarization assay & competition assay […]
plate (Greiner Bio-One). Upon mixture of protein and ligand, the plate was incubated for 30 min at room temperature followed by fluorescence polarization measurements by a plate reader (TECAN Spark® 20M) using 485 nm as excitation wavelength (bandwidth 20 nm) and 535 nm as emission wavelength (bandwidth 25 nm). The obtained fluorescence polarization values from each well were plotted against the concentration of the protein. The apparent Kd values were obtained by fitting the curve to the […]
FP = FP + FPmax ― FPmin (C + C + K ― (C + C + K )2 ― 4C C ) […]
protein should be around the Kd of the tracer to ensure that enough free protein that can bind the […]
competitor, and enough signal change coming from binding and unbinding of the tracer. The solution of the tracer and protein was titrated with increasing amounts of competitors, in our case SiR650- and […]
The mixture was then incubated for an hour at room temperature and the FP was then measured on a plate reader using the same conditions as mentioned before. From the obtained FP values, we have calculated the amount of free protein in the solution for each concentration of competitor using the equation of the single-site binding isotherm:
Pfree = Kd_tracer FP ― FP
Where Pfree is concentration of free protein, Kd tracer represents the previously determined binding affinity

[1] = test system: HeLa cells expressing Centrin1-GFP; assay: Centriole phenotypic scoring (number of Centrin1-GFP foci); type: cell-based, human
Text: Having established that SiR595-centrinone (2d) can successfully label overexpressed Plk4, we wanted to investigate whether it also marks endogenous Plk4. […] In contrast, partial Plk4 inhibition leads to increased levels of centriolar Plk4 due to partial interference with protein degradation mediated by autophosphorylation, overall resulting in centriole overamplification.[8] Therefore, both under-duplication and overamplification of centrioles can be used as a proxy for SiR595-centrinone binding to endogenous Plk4. […] We conclude that the failure of SiR595-centrinone (2d) to detect endogenous Plk4 is due to the low binding affinity of the probe in combination with low protein levels. […] In the second step, the Plk4-bound molecule is specifically reacted with an appropriate fluorogenic tetrazine dye.[27]−[33] This strategy was applied previously successfully to label various protein targets in live and fixed cells,[30],[32],[34]−[38] and we reasoned that a smaller and potentially more permeable Cen-TCO (3) derivative would likewise enable more efficient labeling of endogenous Plk4.
We conjugated trans-cyclooctene to the previously obtained compound (4) to obtain Cen-TCO (3) using the synthetic route outlined in Scheme S2. The resulting Cen-TCO (3) reacted with an appropriate tetrazine, such as SiR650-TetH (4a) (Figure S4A). The reaction was followed by LC-MS, and the data confirmed quantitative conversion of Cen-TCO (3) to the appropriate cycloaddition product Cen-Click-SiR650 (Figure S4A, D). […] To assess the phenotype caused by Cen-TCO (3), we incubated HeLa cells expressing Centrin1-GFP with different concentrations of Cen-TCO (3) for 24 h, followed by scoring of Centrin1-GFP foci numbers (Figure S5B). […] Despite the high unspecific background signal, a clear focus could be detected at centrioles (Figure 4B). […] The fwhm of the circular signal in this case was 368 ± 26 (N = 6) (Figure S7B), which corresponds to the size measured with overexpressed GFP-Plk4(K41M) (see Figure 3D), and approximately that of the torus region surrounding the centriole.[40] […]

| Compound | Kd (Plk4 kinase domain) | binding affinity lower (KD higher) than that of unmodified centrinone (Plk4 kinase domain) | binding affinity higher than that of SiR595-centrinone (2d) (Plk4 kinase domain; ratio of Kd values) | concentration causing the centriole under-duplication phenotype ([1]; 24 h incubation, scoring of Centrin1-GFP foci) | effect on centriole numbers ([1]; 2 μM, 24 h) |
| --- | --- | --- | --- | --- | --- |
| COc1c(Nc2cc(C)[nH]n2)nc(Sc2ccc(S(=O)(=O)Cc3cccc([N+](=O)[O-])c3F)cc2F)nc1N1CCC(CC(=O)NCCNC(=O)OC2CC/C=C/CCC2)CC1 (stereo not shown) [compound 3] | 8 ± 1 nM | ~9 fold | 4 fold | ≥ 500 nM | – |
| COc1c(Nc2cc(C)[nH]n2)nc(Sc2ccc(S(=O)(=O)Cc3cccc([N+](=O)[O-])c3F)cc2F)nc1N1CCC(CC(=O)NCCNC(=O)c2ccc(C(=O)O)c(C3=C4C=CC(=N)C=C4[Si](C)(C)c4cc(N)ccc43)c2)CC1 [2d] | 38 ± 5 nM | 42 fold | – | – | did not affect centriole numbers |
